Test results reported in ChEMBL document CHEMBL4477239 (Bioorg Med Chem, 2016).

How the values were obtained:
[1] = Intrinsic clearance in rat liver microsomes assessed per mg of protein at 1 uM preincubated for 5 mins followed by NADPH addition measured after 5 to 30 mins by LC-MS/MS analysis; format: ADME, Microsome; details: read-out: CLH
Cytochrome P450 3A4 [2] = target: T1, Cytochrome P450 3A4 (Homo sapiens, UniProt P08684); assay: Time-dependent inhibition of CYP3A4 in human liver microsomes at 10 uM using troleandomycin as […] preincubated with compound followed by NADPH addition by LC-MS/MS analysis; format: ADME
T1 sequence (P08684 whole entry): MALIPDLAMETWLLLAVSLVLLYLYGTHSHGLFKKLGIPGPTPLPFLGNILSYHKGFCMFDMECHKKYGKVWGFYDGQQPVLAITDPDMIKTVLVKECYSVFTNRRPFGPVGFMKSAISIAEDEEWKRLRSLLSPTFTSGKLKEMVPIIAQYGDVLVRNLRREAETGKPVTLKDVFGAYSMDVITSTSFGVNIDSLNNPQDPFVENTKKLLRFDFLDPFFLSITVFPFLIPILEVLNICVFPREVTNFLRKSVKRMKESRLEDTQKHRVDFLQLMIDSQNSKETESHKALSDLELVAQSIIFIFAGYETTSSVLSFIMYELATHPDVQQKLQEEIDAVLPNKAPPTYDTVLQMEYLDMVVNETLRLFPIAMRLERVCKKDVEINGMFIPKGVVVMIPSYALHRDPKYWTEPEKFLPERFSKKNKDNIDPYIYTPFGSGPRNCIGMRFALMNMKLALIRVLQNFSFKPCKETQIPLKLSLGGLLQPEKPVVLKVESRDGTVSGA

[3] = Efflux ratio of permeability from basolateral to apical side over apical to basolateral side in Caco2 cells at 1 to 10 uM incubated for 90 mins by LC-MS/MS analysis; format: ADME, cell-based; details: human, Caco-2
Cytochrome P450 3A4 [4] = target: T1, Cytochrome P450 3A4; assay: Inhibition of CYP3A4 in human liver microsomes at 10 uM using ketoconazole as […] preincubated for 5 mins followed by NADPH addition measured after 20 mins by LC-MS/MS analysis; format: ADME
NCI-H1993 = assay: Cytotoxicity against human NCI-H1993 cells assessed as growth inhibition after 72 hrs by CCK-8 assay; details: NCI-H1993, 72 h
[5] = Intrinsic clearance in human liver microsomes assessed per mg of protein at 1 uM preincubated for 5 mins followed by NADPH addition measured after 5 to 30 mins by LC-MS/MS analysis; format: ADME, Microsome; details: read-out: CLH
Cytochrome P450 1A2 [6] = target: T2, Cytochrome P450 1A2 (Homo sapiens, UniProt P05177); assay: Inhibition of CYP1A2 in human liver microsomes at 10 uM using naphthoflavone as […] preincubated for 5 mins followed by NADPH addition measured after 20 mins by LC-MS/MS analysis; format: ADME
T2 sequence (P05177 whole entry): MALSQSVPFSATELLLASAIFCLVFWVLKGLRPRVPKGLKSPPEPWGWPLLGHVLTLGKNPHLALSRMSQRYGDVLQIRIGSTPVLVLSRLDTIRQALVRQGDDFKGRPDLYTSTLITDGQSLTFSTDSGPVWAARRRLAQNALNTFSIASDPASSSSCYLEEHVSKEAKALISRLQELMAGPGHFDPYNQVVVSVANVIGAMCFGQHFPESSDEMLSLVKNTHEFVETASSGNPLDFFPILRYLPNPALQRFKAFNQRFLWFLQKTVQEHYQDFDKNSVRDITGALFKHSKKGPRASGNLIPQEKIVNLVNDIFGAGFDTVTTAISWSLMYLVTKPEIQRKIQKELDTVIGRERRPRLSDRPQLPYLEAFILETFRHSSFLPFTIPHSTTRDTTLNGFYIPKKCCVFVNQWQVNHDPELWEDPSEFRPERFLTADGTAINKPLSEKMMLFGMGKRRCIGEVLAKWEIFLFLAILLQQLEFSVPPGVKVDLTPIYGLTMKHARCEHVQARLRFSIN

Cytochrome P450 1A2 [7] = target: T2, Cytochrome P450 1A2; assay: Time-dependent inhibition of CYP1A2 in human liver microsomes at 10 uM using furafylline as […] preincubated with compound followed by NADPH addition by LC-MS/MS analysis; format: ADME
Cytochrome P450 2D6 [8] = target: T3, Cytochrome P450 2D6 (Homo sapiens, UniProt P10635); assay: Inhibition of CYP2D6 in human liver microsomes at 10 uM using quinidine as […] preincubated for 5 mins followed by NADPH addition measured after 20 mins by LC-MS/MS analysis; format: ADME
T3 sequence (P10635 whole entry): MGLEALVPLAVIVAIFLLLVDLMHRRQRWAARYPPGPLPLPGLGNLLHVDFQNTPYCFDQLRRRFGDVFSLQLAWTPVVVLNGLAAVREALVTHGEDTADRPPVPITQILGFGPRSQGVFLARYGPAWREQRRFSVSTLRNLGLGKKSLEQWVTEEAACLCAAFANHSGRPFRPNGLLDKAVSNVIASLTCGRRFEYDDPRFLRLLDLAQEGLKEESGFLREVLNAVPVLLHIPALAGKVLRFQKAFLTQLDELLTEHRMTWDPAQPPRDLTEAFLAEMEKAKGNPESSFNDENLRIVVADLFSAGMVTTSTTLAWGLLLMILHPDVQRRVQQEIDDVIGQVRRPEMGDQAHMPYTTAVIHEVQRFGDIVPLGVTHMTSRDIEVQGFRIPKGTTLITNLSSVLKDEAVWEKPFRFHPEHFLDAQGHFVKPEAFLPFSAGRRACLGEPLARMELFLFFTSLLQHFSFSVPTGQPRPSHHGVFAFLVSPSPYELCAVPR

[9] = Apparent permeability from basolateral to apical side in Caco2 cells at 1 to 10 uM incubated for 90 mins by LC-MS/MS analysis; format: ADME, cell-based; details: human, Caco-2
Cytochrome P450 2D6 [10] = target: T3, Cytochrome P450 2D6; assay: Time-dependent inhibition of CYP2D6 in human liver microsomes at 10 uM using paroxetine as […] preincubated with compound followed by NADPH addition by LC-MS/MS analysis; format: ADME
[11] = target: Hepatocyte growth factor receptor (Homo sapiens, UniProt P08581)
Sequence of Hepatocyte growth factor receptor (P08581 whole entry): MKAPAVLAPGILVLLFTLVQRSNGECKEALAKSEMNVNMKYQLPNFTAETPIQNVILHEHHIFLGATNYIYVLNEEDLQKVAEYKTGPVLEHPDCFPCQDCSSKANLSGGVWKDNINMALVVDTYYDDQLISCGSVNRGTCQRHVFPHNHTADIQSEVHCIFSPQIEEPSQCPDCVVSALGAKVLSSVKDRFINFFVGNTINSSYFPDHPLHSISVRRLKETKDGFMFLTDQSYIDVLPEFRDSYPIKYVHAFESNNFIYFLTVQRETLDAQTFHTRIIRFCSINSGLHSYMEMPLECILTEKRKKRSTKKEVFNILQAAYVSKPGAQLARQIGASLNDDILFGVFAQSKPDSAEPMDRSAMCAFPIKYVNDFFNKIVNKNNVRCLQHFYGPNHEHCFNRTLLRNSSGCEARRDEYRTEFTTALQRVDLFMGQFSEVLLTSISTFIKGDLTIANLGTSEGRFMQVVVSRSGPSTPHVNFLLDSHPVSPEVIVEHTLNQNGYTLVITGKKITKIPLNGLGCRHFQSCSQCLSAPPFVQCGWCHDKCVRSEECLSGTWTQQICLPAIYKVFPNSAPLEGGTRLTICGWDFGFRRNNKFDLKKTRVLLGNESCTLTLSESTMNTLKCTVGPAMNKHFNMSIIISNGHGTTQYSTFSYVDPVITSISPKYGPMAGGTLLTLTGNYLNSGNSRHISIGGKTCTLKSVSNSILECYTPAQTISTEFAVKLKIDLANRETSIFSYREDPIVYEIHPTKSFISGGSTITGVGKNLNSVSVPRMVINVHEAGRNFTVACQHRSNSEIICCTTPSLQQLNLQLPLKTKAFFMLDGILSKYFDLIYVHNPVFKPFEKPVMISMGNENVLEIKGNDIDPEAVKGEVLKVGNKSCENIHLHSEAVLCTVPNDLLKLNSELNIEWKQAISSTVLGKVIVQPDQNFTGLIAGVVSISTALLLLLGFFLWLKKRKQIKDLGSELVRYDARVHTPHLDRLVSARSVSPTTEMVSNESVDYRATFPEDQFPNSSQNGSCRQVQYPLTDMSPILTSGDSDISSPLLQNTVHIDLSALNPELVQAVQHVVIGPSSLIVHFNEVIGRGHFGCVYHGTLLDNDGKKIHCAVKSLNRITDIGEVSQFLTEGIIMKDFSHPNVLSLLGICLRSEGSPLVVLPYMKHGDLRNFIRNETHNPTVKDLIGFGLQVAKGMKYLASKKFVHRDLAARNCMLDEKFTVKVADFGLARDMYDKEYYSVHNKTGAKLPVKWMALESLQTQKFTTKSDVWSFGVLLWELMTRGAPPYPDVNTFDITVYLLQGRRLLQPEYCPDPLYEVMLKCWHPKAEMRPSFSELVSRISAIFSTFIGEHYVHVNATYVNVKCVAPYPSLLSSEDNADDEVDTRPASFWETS
Description: Inhibition of c-Met kinase (unknown origin) assessed as decrease in phosphorylation of TK substrate-biotin peptide preincubated for 5 to 10 mins followed by ATP addition measured after 30 mins by HTRF assay

Cytochrome P450 2C19 = Cytochrome P450 2C19 (Homo sapiens, UniProt P33261); assay: Inhibition of CYP2C19 in human liver microsomes at 10 uM using tranylcypromine as […] preincubated for 5 mins followed by NADPH addition measured after 20 mins by LC-MS/MS analysis; format: ADME
Sequence of Cytochrome P450 2C19 (P33261 whole entry): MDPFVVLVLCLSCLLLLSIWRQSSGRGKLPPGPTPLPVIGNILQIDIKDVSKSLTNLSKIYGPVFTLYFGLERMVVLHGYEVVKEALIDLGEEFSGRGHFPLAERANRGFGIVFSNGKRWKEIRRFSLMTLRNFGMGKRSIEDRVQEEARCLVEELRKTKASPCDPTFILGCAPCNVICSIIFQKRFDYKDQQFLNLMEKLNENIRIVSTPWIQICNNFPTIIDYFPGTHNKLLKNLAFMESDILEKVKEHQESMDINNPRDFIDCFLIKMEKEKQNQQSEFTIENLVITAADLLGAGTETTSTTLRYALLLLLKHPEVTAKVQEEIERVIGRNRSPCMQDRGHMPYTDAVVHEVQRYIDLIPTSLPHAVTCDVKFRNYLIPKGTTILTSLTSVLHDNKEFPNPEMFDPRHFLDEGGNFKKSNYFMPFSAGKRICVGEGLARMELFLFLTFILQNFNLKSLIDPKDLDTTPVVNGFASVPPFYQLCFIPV

Cytochrome P450 2C9 = Cytochrome P450 2C9 (Homo sapiens, UniProt P11712); assay: Inhibition of CYP2C9 in human liver microsomes at 10 uM using sulfaphenazole as […] preincubated for 5 mins followed by NADPH addition measured after 20 mins by LC-MS/MS analysis; format: ADME
Sequence of Cytochrome P450 2C9 (P11712 whole entry): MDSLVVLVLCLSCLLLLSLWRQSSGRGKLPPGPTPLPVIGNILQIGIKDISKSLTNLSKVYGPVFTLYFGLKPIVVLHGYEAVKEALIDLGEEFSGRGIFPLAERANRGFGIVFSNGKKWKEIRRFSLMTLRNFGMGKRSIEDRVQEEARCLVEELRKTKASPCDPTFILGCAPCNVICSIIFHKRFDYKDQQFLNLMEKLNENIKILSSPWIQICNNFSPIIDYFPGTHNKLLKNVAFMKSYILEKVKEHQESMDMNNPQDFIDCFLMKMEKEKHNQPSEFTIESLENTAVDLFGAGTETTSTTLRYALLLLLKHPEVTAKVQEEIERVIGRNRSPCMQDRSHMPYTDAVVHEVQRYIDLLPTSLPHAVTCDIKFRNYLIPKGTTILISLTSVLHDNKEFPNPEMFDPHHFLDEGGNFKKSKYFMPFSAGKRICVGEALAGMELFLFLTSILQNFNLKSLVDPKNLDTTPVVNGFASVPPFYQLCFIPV

in vitro = details: human, Caco-2
Description: Apparent permeability from apical to basolateral side in Caco2 cells at 1 to 10 uM incubated for 90 mins by LC-MS/MS analysis

Ephrin type-B receptor 2 = Ephrin type-B receptor 2 (Homo sapiens, UniProt P29323); assay: Inhibition of human EPHB2
Sequence of Ephrin type-B receptor 2 (P29323 whole entry): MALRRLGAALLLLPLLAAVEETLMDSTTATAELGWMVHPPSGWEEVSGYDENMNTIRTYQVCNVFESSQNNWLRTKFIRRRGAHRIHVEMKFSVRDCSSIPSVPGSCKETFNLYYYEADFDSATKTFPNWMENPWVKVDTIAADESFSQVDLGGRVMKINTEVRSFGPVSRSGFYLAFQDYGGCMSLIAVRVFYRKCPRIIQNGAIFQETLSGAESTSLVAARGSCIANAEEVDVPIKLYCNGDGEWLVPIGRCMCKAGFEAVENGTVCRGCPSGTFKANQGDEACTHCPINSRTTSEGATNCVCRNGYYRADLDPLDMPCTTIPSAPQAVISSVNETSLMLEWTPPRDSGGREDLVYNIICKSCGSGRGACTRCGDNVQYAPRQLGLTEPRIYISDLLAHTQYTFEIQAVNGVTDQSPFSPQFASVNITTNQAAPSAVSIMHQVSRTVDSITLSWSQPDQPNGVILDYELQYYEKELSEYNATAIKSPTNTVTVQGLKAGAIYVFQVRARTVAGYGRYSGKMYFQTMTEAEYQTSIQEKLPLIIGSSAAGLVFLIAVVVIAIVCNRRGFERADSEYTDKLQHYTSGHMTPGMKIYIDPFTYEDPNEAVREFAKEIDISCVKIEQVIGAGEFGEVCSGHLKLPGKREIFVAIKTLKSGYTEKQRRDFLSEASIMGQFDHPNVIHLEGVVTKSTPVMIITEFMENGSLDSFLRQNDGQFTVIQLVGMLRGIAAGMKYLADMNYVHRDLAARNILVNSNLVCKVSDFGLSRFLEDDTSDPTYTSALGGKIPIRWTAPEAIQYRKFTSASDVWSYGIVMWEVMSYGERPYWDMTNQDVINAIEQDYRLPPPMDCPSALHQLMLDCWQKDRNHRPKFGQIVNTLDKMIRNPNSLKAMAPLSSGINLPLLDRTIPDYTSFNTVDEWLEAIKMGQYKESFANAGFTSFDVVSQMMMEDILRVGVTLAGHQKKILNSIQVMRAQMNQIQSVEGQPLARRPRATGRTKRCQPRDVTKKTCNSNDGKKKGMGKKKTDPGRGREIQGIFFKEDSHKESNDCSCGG

[12] = target: Epidermal growth factor receptor (Homo sapiens, UniProt P00533, T790M); assay: Inhibition of human EGFR T790M mutant
[13] = target: Proto-oncogene tyrosine-protein kinase receptor Ret (Homo sapiens, UniProt P07949); assay: Inhibition of human RET
[14] = target: Platelet-derived growth factor receptor alpha (Homo sapiens, UniProt P16234); assay: Inhibition of human PDGFRalpha
[15] = target: Vascular endothelial growth factor receptor 1 (Homo sapiens, UniProt P17948); assay: Inhibition of human FLT1
[16] = target: ALK tyrosine kinase receptor (Homo sapiens, UniProt Q9UM73); assay: Inhibition of human ALK
[17] = target: Epidermal growth factor receptor (Homo sapiens, UniProt P00533); assay: Inhibition of human EGFR
[18] = target: Fibroblast growth factor receptor 1 (Homo sapiens, UniProt P11362); assay: Inhibition of human FGFR1
[19] = target: Receptor tyrosine-protein kinase erbB-4 (Homo sapiens, UniProt Q15303); assay: Inhibition of human ERBB4
Ephrin type-A receptor 2 = Ephrin type-A receptor 2 (Homo sapiens, UniProt P29317); assay: Inhibition of human EPHA2
[20] = target: Macrophage-stimulating protein receptor (Homo sapiens, UniProt Q04912); assay: Inhibition of human RON
[21] = target: Tyrosine-protein kinase receptor UFO (Homo sapiens, UniProt P30530); assay: Inhibition of human AXL
[22] = target: Mast/stem cell growth factor receptor Kit (Homo sapiens, UniProt P10721); assay: Inhibition of human c-Kit
[23] = target: Tyrosine-protein kinase ABL1 (Homo sapiens, UniProt P00519); assay: Inhibition of human ABL
[24] = target: Vascular endothelial growth factor receptor 2 (Homo sapiens, UniProt P35968); assay: Inhibition of human VEGFR2
[25] = target: Insulin-like growth factor 1 receptor (Homo sapiens, UniProt P08069); assay: Inhibition of human IGF1R
[26] = target: Platelet-derived growth factor receptor beta (Homo sapiens, UniProt P09619); assay: Inhibition of human PDGFRbeta
[27] = target: Proto-oncogene tyrosine-protein kinase Src (Homo sapiens, UniProt P12931); assay: Inhibition of human c- SRC
Sequence of Proto-oncogene tyrosine-protein kinase Src (P12931 2-536 limits assumed): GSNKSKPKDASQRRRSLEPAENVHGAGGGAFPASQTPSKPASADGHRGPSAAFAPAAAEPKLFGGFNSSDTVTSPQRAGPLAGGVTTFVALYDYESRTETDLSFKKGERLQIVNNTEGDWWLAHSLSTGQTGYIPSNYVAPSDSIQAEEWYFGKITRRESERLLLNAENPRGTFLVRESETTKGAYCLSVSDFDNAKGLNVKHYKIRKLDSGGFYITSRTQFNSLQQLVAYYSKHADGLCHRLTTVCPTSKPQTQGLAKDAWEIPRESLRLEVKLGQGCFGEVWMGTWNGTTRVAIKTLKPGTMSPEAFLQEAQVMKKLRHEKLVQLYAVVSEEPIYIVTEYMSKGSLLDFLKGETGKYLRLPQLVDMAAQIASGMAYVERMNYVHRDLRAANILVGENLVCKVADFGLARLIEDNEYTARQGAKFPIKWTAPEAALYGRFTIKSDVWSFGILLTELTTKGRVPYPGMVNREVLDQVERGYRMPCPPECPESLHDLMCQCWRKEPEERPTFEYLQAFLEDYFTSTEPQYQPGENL

## CC(c1cc2cccnc2cc1F)n1cnc2ncc(-c3cnn(C)c3)nc21 (centres undefined)
[1]
  microsomal CLint at 1 µM: 18 µL/min/mg
Cytochrome P450 3A4 [2]
  inhibition (INH): Not Active
[3]
  efflux ratio at 1.5 h: 1.02
Cytochrome P450 3A4 [4]
  inhibition (INH): Not Active
NCI-H1993
  IC50: 0.0313 µM
[5]
  microsomal CLint at 1 µM: 9 µL/min/mg
Cytochrome P450 1A2 [6]
  inhibition (INH): Not Active
Cytochrome P450 1A2 [7]
  inhibition (INH): Not Active
Cytochrome P450 2D6 [8]
  inhibition (INH): Not Active
[9]
  Papp B→A at 1.5 h: 40.1 ×10⁻⁶ cm/s
Cytochrome P450 2D6 [10]
  inhibition (INH): Not Active
[11]
  IC50: 0.0016 µM
Cytochrome P450 2C19
  inhibition (INH): Not Active
Cytochrome P450 2C9
  inhibition (INH): Not Active
In vitro
  Papp A→B at 1.5 h, 10 µM: 39.3 ×10⁻⁶ cm/s

## C[C@@H](c1cc2cccnc2cc1F)n1cnc2ncc(-c3cnn(C)c3)nc21
Ephrin type-B receptor 2
  IC50: > 30 µM
[1]
  microsomal CLint at 1 µM: 49 µL/min/mg
Cytochrome P450 3A4 [2]
  inhibition (INH): Not Active
[3]
  efflux ratio at 1.5 h: 1.04
[12]
  IC50: > 30 µM
NCI-H1993
  IC50: 0.0247 µM
[13]
  IC50: > 30 µM
[14]
  IC50: 27.6 µM
[15]
  IC50: > 30 µM
[16]
  IC50: > 30 µM
[5]
  microsomal CLint at 1 µM: 8 µL/min/mg
[17]
  IC50: > 30 µM
[18]
  IC50: > 30 µM
[19]
  IC50: > 30 µM
Cytochrome P450 1A2 [7]
  inhibition (INH): Not Active
Ephrin type-A receptor 2
  IC50: > 30 µM
[20]
  IC50: > 30 µM
[21]
  IC50: > 30 µM
[22]
  IC50: > 30 µM
[9]
  Papp B→A at 1.5 h: 48.6 ×10⁻⁶ cm/s
[23]
  IC50: > 30 µM
Cytochrome P450 2D6 [10]
  inhibition (INH): Not Active
[11]
  IC50: 0.00145 µM
[24]
  IC50: 20.6 µM
[25]
  IC50: > 30 µM
Cytochrome P450 2C9
  inhibition (INH): Active
[26]
  IC50: 26.2 µM
In vitro
  Papp A→B at 1.5 h, 10 µM: 46.6 ×10⁻⁶ cm/s
[27]
  IC50: > 30 µM
